Test results reported in ChEMBL document CHEMBL3352237, “Synthesis and biological evaluation of novel peptide BF2 as an antibacterial agent against clinical isolates of vancomycin-resistant enterococci” (J Med Chem, 2014).

Experiments:
Type in all cases: functional
[1] = test system: Enterococcus faecium; assay: Antibacterial activity against vancomycin-resistant Enterococcus faecium clinical isolate 30/48 after overnight incubation by two-fold serial dilution method
[2] = test system: Enterococcus faecium; assay: Antibacterial activity against vancomycin-resistant Enterococcus faecium clinical isolate 27/221 after overnight incubation by two-fold serial dilution method
[3] = test system: Enterococcus; assay: Antibacterial activity against vancomycin-resistant Enterococcus ATCC 51299 after overnight incubation by two-fold serial dilution method
[4] = test system: Enterococcus faecalis; assay: Antibacterial activity against vancomycin-resistant Enterococcus faecalis clinical isolate 6093 after overnight incubation by two-fold serial dilution method
[5] = test system: Enterococcus faecalis; assay: Antibacterial activity against vancomycin-resistant Enterococcus faecalis clinical isolate 22626 after overnight incubation by two-fold serial dilution method
[6] = test system: Enterococcus faecium; assay: Antibacterial activity against vancomycin-resistant Enterococcus faecium clinical isolate 16475 after overnight incubation by two-fold serial dilution method
[7] = test system: Enterococcus faecalis; assay: Antibacterial activity against vancomycin-resistant Enterococcus faecalis clinical isolate 27728 after overnight incubation by two-fold serial dilution method
[8] = test system: Enterococcus faecium; assay: Antibacterial activity against vancomycin-resistant Enterococcus faecium clinical isolate 17301 after overnight incubation by two-fold serial dilution method
[9] = test system: Enterococcus faecium; assay: Antibacterial activity against vancomycin-resistant Enterococcus faecium clinical isolate 27/16917 after overnight incubation by two-fold serial dilution method; details: isolate 27/1691
[10] = test system: Enterococcus faecium; assay: Antibacterial activity against vancomycin-resistant Enterococcus faecium clinical isolate 14643 after overnight incubation by two-fold serial dilution method
[11] = test system: Enterococcus faecium; assay: Antibacterial activity against vancomycin-resistant Enterococcus faecium clinical isolate 31386 after overnight incubation by two-fold serial dilution method
[12] = test system: Enterococcus faecalis; assay: Antibacterial activity against vancomycin-resistant Enterococcus faecalis clinical isolate 22/203 after overnight incubation by two-fold serial dilution method
[13] = test system: Enterococcus faecium; assay: Antibacterial activity against vancomycin-resistant Enterococcus faecium clinical isolate 23/240 after overnight incubation by two-fold serial dilution method
[14] = test system: Enterococcus faecium; assay: Antibacterial activity against vancomycin-resistant Enterococcus faecium clinical isolate 12/266 after overnight incubation by two-fold serial dilution method
[15] = test system: Enterococcus faecium; assay: Antibacterial activity against vancomycin-resistant Enterococcus faecium clinical isolate 6/22 after overnight incubation by two-fold serial dilution method
[16] = test system: Enterococcus faecium; assay: Antibacterial activity against vancomycin-resistant Enterococcus faecium clinical isolate 29/203 after overnight incubation by two-fold serial dilution method
[17] = test system: Enterococcus faecalis; assay: Antibacterial activity against vancomycin-resistant Enterococcus faecalis clinical isolate 7077 after overnight incubation by two-fold serial dilution method
[18] = test system: Enterococcus faecium; assay: Antibacterial activity against vancomycin-resistant Enterococcus faecium clinical isolate 18906 after overnight incubation by two-fold serial dilution method
[19] = test system: Enterococcus faecalis; assay: Antibacterial activity against vancomycin-resistant Enterococcus faecalis clinical isolate 21/235 after overnight incubation by two-fold serial dilution method
[20] = test system: Enterococcus faecium; assay: Antibacterial activity against vancomycin-resistant Enterococcus faecium clinical isolate 5396 after overnight incubation by two-fold serial dilution method
[21] = test system: Enterococcus faecium; assay: Antibacterial activity against vancomycin-resistant Enterococcus faecium clinical isolate 5484 after overnight incubation by two-fold serial dilution method
[22] = test system: Enterococcus faecium; assay: Antibacterial activity against vancomycin-resistant Enterococcus faecium clinical isolate 10177 after overnight incubation by two-fold serial dilution method
[23] = test system: Enterococcus faecium; assay: Antibacterial activity against vancomycin-resistant Enterococcus faecium clinical isolate 7/27 after overnight incubation by two-fold serial dilution method
[24] = test system: Enterococcus faecium; assay: Antibacterial activity against vancomycin-resistant Enterococcus faecium clinical isolate 16115 after overnight incubation by two-fold serial dilution method
[25] = test system: Enterococcus faecalis; assay: Antibacterial activity against vancomycin-resistant Enterococcus faecalis clinical isolate 387702 after overnight incubation by two-fold serial dilution method
[26] = test system: Enterococcus faecalis; assay: Antibacterial activity against vancomycin-resistant Enterococcus faecalis clinical isolate 5648 after overnight incubation by two-fold serial dilution method
[27] = test system: Enterococcus faecalis; assay: Antibacterial activity against vancomycin-resistant Enterococcus faecalis clinical isolate 5642 after overnight incubation by two-fold serial dilution method
[28] = test system: Enterococcus faecalis; assay: Antibacterial activity against vancomycin-resistant Enterococcus faecalis clinical isolate 5814 after overnight incubation by two-fold serial dilution method
[29] = test system: Enterococcus faecium; assay: Antibacterial activity against vancomycin-resistant Enterococcus faecium clinical isolate 12875 after overnight incubation by two-fold serial dilution method
[30] = test system: Enterococcus faecalis; assay: Antibacterial activity against vancomycin-resistant Enterococcus faecalis clinical isolate 7079 after overnight incubation by two-fold serial dilution method
[31] = test system: Enterococcus faecium; assay: Antibacterial activity against vancomycin-resistant Enterococcus faecium clinical isolate 8/224 after overnight incubation by two-fold serial dilution method
[32] = test system: Enterococcus faecium; assay: Antibacterial activity against vancomycin-resistant Enterococcus faecium clinical isolate 3864 after overnight incubation by two-fold serial dilution method
[33] = test system: Enterococcus faecalis; assay: Antibacterial activity against vancomycin-resistant Enterococcus faecalis clinical isolate 7846 after overnight incubation by two-fold serial dilution method
[34] = test system: Enterococcus faecium; assay: Antibacterial activity against vancomycin-resistant Enterococcus faecium clinical isolate 151495 after overnight incubation by two-fold serial dilution method
[35] = test system: Enterococcus faecalis; assay: Antibacterial activity against vancomycin-resistant Enterococcus faecalis clinical isolate 7670 after overnight incubation by two-fold serial dilution method
[36] = test system: Enterococcus faecium; assay: Antibacterial activity against vancomycin-resistant Enterococcus faecium clinical isolate 147969 after overnight incubation by two-fold serial dilution method
[37] = test system: Enterococcus faecium; assay: Antibacterial activity against vancomycin-resistant Enterococcus faecium clinical isolate 28/211 after overnight incubation by two-fold serial dilution method
[38] = test system: Enterococcus; assay: Antibacterial activity against vancomycin-resistant Enterococcus ATCC 29212 after overnight incubation by two-fold serial dilution method
[39] = test system: Enterococcus faecium; assay: Antibacterial activity against vancomycin-resistant Enterococcus faecium clinical isolate 13246 after overnight incubation by two-fold serial dilution method
[40] = test system: Enterococcus faecium; assay: Antibacterial activity against vancomycin-resistant Enterococcus faecium clinical isolate 15/213 after overnight incubation by two-fold serial dilution method
[41] = test system: Enterococcus faecium; assay: Antibacterial activity against vancomycin-resistant Enterococcus faecium clinical isolate 31176 after overnight incubation by two-fold serial dilution method
[42] = test system: Enterococcus; assay: Antibacterial activity against vancomycin-resistant Enterococcus ATCC 29212 by checkerboard titration method in presence of vancomycin
[43] = test system: Enterococcus; assay: Antibacterial activity against vancomycin-resistant Enterococcus ATCC 51299 by checkerboard titration method in presence of linezolid
[44] = test system: Enterococcus; assay: Antibacterial activity against vancomycin-resistant Enterococcus ATCC 29212 by checkerboard titration method in presence of linezolid
[45] = test system: Enterococcus; assay: Antibacterial activity against vancomycin-resistant Enterococcus ATCC 51299 by checkerboard titration method in presence of vancomycin

Question: For H-HWRLLLLKKH-OH, which MIC [1] is on record?
Answer: Its MIC is 25 µg/mL.

Question: And the MIC [2]?
Answer: The MIC was 25 µg/mL.

Question: And the MIC [3]?
Answer: The MIC was 25 µg/mL.

Question: What about the MIC [4] of the same substance?
Answer: Its MIC is 25 µg/mL.

Question: What about the MIC [5] of the same substance?
Answer: The MIC was 25 µg/mL.

Question: What about the MIC [6] of the same substance?
Answer: Its MIC is 25 µg/mL.

Question: And the MIC [7]?
Answer: The MIC was 25 µg/mL.

Question: What about the MIC [8] of the same substance?
Answer: Its MIC is 25 µg/mL.

Question: And the MIC [9]?
Answer: Its MIC is 25 µg/mL.

Question: And the MIC [10]?
Answer: The MIC was 25 µg/mL.

Question: And the MIC [11]?
Answer: Its MIC is 25 µg/mL.

Question: What about the MIC [12] of the same substance?
Answer: Its MIC is 25 µg/mL.

Question: What about the MIC [13] of the same substance?
Answer: Its MIC is 25 µg/mL.

Question: And the MIC [14]?
Answer: Its MIC is 25 µg/mL.

Question: And the MIC [15]?
Answer: The MIC was 25 µg/mL.

Question: What about the MIC [16] of the same substance?
Answer: Its MIC is 25 µg/mL.

Question: And the MIC [17]?
Answer: Its MIC is 25 µg/mL.

Question: What about the MIC [18] of the same substance?
Answer: Its MIC is 25 µg/mL.

Question: And the MIC [19]?
Answer: The MIC was 25 µg/mL.

Question: What about the MIC [20] of the same substance?
Answer: The MIC was 25 µg/mL.

Question: And the MIC [21]?
Answer: Its MIC is 25 µg/mL.

Question: And the MIC [22]?
Answer: The MIC was 25 µg/mL.

Question: What about the MIC [23] of the same substance?
Answer: Its MIC is 25 µg/mL.

Question: And the MIC [24]?
Answer: Its MIC is 25 µg/mL.

Question: What about the MIC [25] of the same substance?
Answer: The MIC was 25 µg/mL.

Question: And the MIC [26]?
Answer: The MIC was 25 µg/mL.

Question: And the MIC [27]?
Answer: Its MIC is 25 µg/mL.

Question: What about the MIC [28] of the same substance?
Answer: The MIC was 25 µg/mL.

Question: And the MIC [29]?
Answer: Its MIC is 25 µg/mL.

Question: And the MIC [30]?
Answer: The MIC was 25 µg/mL.

Question: What about the MIC [31] of the same substance?
Answer: The MIC was 25 µg/mL.

Question: What about the MIC [32] of the same substance?
Answer: Its MIC is 25 µg/mL.

Question: What about the MIC [33] of the same substance?
Answer: The MIC was 25 µg/mL.

Question: And the MIC [34]?
Answer: Its MIC is 25 µg/mL.

Question: And the MIC [35]?
Answer: The MIC was 25 µg/mL.

Question: What about the MIC [36] of the same substance?
Answer: The MIC was 25 µg/mL.

Question: What about the MIC [37] of the same substance?
Answer: Its MIC is 25 µg/mL.

Question: And the MIC [38]?
Answer: The MIC was 25 µg/mL.

Question: What about the MIC [39] of the same substance?
Answer: The MIC was 25 µg/mL.

Question: What about the MIC [40] of the same substance?
Answer: Its MIC is 25 µg/mL.

Question: What about the MIC [41] of the same substance?
Answer: The MIC was 25 µg/mL.

Question: With H-FLPLIGRVLSGIL-NH2 [TEMPORIN A] as the substance, how does the “fractional inhibitory concentration index (FICI)” value [42] read?
Answer: The value was 1.25.

Question: What about the “fractional inhibitory concentration index (FICI)” value [43] of the same substance?
Answer: Its value is 0.75.

Question: What about the “fractional inhibitory concentration index (FICI)” value [44] of the same substance?
Answer: The value was 0.75.

Question: What about the “fractional inhibitory concentration index (FICI)” value [45] of the same substance?
Answer: The value was 1.5.

Question: What does the source list for H-RWRLLLLKRH-OH?
Answer: MIC [1]: 12.5 µg/mL; MIC [2]: 12.5 µg/mL; MIC [3]: 12.5 µg/mL; MIC [4]: 12.5 µg/mL; MIC [5]: 12.5 µg/mL; MIC [6]: 12.5 µg/mL; MIC [7]: 12.5 µg/mL; MIC [8]: 12.5 µg/mL; MIC [9]: 12.5 µg/mL; MIC [10]: 12.5 µg/mL; MIC [11]: 12.5 µg/mL; MIC [12]: 12.5 µg/mL; MIC [13]: 12.5 µg/mL; MIC [14]: 12.5 µg/mL; MIC [15]: 12.5 µg/mL; MIC [16]: 12.5 µg/mL; MIC [17]: 12.5 µg/mL; MIC [18]: 12.5 µg/mL; MIC [19]: 12.5 µg/mL; MIC [20]: 12.5 µg/mL; MIC [21]: 12.5 µg/mL; MIC [22]: 12.5 µg/mL; MIC [23]: 12.5 µg/mL; MIC [24]: 12.5 µg/mL; MIC [25]: 12.5 µg/mL; MIC [26]: 12.5 µg/mL; MIC [27]: 12.5 µg/mL; MIC [28]: 12.5 µg/mL; MIC [29]: 12.5 µg/mL; MIC [30]: 12.5 µg/mL; MIC [31]: 12.5 µg/mL; MIC [32]: 12.5 µg/mL; MIC [33]: 12.5 µg/mL; MIC [34]: 12.5 µg/mL; MIC [35]: 12.5 µg/mL; MIC [36]: 12.5 µg/mL; MIC [37]: 12.5 µg/mL; MIC [38]: 12.5 µg/mL; MIC [39]: 12.5 µg/mL; MIC [40]: 12.5 µg/mL; MIC [41]: 12.5 µg/mL
